{"source": "paper PMC7187627", "about": "(Antimicrobial Agents and Chemotherapy, 2019)", "key": {"C. difficile [1]": {"system": "C. difficile", "parameters": "method as in PMID 19258353", "conditions": "cited from earlier work"}, "C. difficile [2]": {"system": "C. difficile", "parameters": "method as in PMID 19258353, PMID 19251726", "conditions": "in vivo model of CDI, compared with vancomycin; cited from earlier work"}, "[3]": {"system": "Bacterial strains that express type 2 MetRS", "parameters": "method as in PMID 19240076", "conditions": "most Gram-negative bacteria, Bacteroides, bifidobacteria, actinobacteria, lactobacilli; cited from earlier work"}, "gut microbiota": {"system": "gut microbiota", "assay": "Fecal microbiome analysis by 16S rRNA gene sequencing", "assay_type": "in vivo, human", "method": "Fecal microbiota profiles were measured for each sample as each operational taxonomic unit (OTU) species present and the relative abundance of that species, based on a region of 469 bp encompassing the V3 and V4 hypervariable regions of the 16S rRNA gene, following protocols developed at the Department of Microbiology and Immunology, University of Maryland School of Medicine Institute for Genome Sciences, Baltimore, MD ([40][–][42]).\n(i) Sample collection and storage and DNA extraction. Fecal samples were collected at nine time points during the study for fecal microbiome analysis: twice before the first dose, on days 1, 4, 7, 9, and 12, and approximately 24 h prior to follow-up visits on day 18 and day 29. The subject was allowed to collect and bring the first fecal sample when admitted (collected within 24 h of admission and kept refrigerated until collected by staff). DNA was extracted from 150 mg of archived stool samples stored at –80°C for 16S rRNA gene amplification and sequencing. Cell lysis was initiated by adding 50 μl of lyzosyme (10 mg/ml), 6 μl of mutanolysin (25,000 U/ml; Sigma-Aldrich), and 3 μl of lysostaphin (4,000 U/ml in sodium acetate; Sigma-Aldrich) and 41 μl of TE50 buffer (10 mM Tris-HCl, 50 mM EDTA [pH 8.0]). Following a 1-h incubation at 37°C, 10 μl of proteinase K (20 mg/ml), 100 μl of 10% SDS, and 20 μl of RNase A (20 mg/ml) were added to the mixture and incubated for 1 h at 55°C. Microbial cells were lysed by mechanical disruption using a bead beater (FastPrep instrument; Qbiogene) set at 6.0 m/s for 30 s. DNA was purified from the lysate using the QIAsymphony robotics platform, consistently providing between 5 and 20 μg of high-quality and amplifiable whole genomic DNA. Following DNA quantitation via the Quant-iTTM PicoGreen double-stranded DNA (dsDNA) assay kit (Life Technologies), samples were diluted to a 5-ng/μl concentration.\nPCRs with dually barcoded 16S rRNA universal primers (319F/806R) were set up using a semiautomated platform with a ViaFlo 96 high-performance 96-channel pipettor and performed on Bio-Rad Tetrad 2 instruments with up to 576 dual index barcoding ([40]). […] The cycling parameters were 30 s of denaturation at 98°C, followed by 30 cycles of 15 s at 98°C (denaturing), 15 s at 58°C (annealing), and 15 s at 72°C (elongation), with a final extension at 72°C for 60 s. Controls included a no-template control for each barcode combination, extraction controls, and a DNA sample of known composition (positive control). The presence of amplicons was confirmed by gel electrophoresis on a 2% E-gel 96. PCR products were normalized using the SequalPrep normalization kit (Life Technologies, Carlsbad, CA) and pooled in equimolar amounts (25 ng) in a single tube. Amplification primers and reaction buffer were removed from the pooled amplicon mixtures using an AMPure kit (Agencourt). The purified amplicon mixtures (up to 576 per pool) were sequenced on an Illumina MiSeq instrument using the 300-bp paired-end protocol (MiSeq 300PE) at the Genomics Resource Center (GRC) at the Institute for Genome Sciences, University of Maryland School of Medicine.\n(iii) Bioinformatic analysis. For sequence quality control, assembly, and taxonomic assignments, a custom bioinformatics pipeline ([40]) was applied that relies on QIIME software ([43]), UCHIME ([44]), and the RDP Naïve Bayesian classifier ([45]). Baseline for fecal microbiome assessments was defined as the mean of the predose assessments on day 1. Presence was defined as positive abundance. The presence of each OTU species and the shift in presence/absence occurrence from baseline were tabulated by treatment. Shifts were categorized as no change, appearance, and disappearance.\nAdditional 16S rRNA data analysis was performed at the Division of Biomedical Informatics and Personalized Medicine, University of Colorado. Joined and quality-filtered sequences sharing >97% sequence similarity were binned as OTUs. […]"}, "C. difficile [4]": {"system": "C. difficile", "parameters": "method as in PMID 19258353, PMID 19251726", "conditions": "cited from earlier work"}, "[5]": {"assay": "Drug product stability (ICH Q1A(R2))", "assay_type": "physicochemical", "conditions": "200-mg gelatin capsules, room temperature", "excerpt": "CRS3123 was provided by Crestone, Inc., in the form of dihydrochloride salt (CRS3123.2HCl) and formulated into 200-mg gelatin capsules by SRI International (Palo Alto, CA). Drug product stability specifications were met beyond the study period [stable for at least 60 months storage at room temperature monitored according to ICH Guidance for Industry Q1A(R2) Stability Testing of New Substances and Products]."}}, "note": "“Also recorded” adds a separate entry of the source."}
{"molecule": "O=c1cc(NCCCN[C@@H]2CCOc3c(Br)cc(Br)cc32)[nH]c2ccsc12", "note": "[CRS3123]", "values": [{"measurement": "MIC90", "setting": "C. difficile [1]", "result": 1, "unit": "µg/mL"}, {"measurement": "protection of hamsters against recurrence", "setting": "C. difficile [2]", "result": "superior to vancomycin"}, {"measurement": "susceptibility of strains expressing type 2 MetRS", "setting": "[3]", "result": "virtually no susceptibility"}, {"measurement": "median weighted UniFrac distance to placebo arm (community composition)", "setting": "gut microbiota; 200 mg, day 9, P = 0.006", "result": 0.361}, {"measurement": "proteobacteria, maximum relative abundance", "setting": "gut microbiota; 200 mg, pretreatment value 0.8%", "result": 1.6, "unit": "%"}, {"measurement": "median weighted UniFrac distance to placebo arm (community composition)", "setting": "gut microbiota; 400 mg, day 9, P = 0.027", "result": 0.440}, {"measurement": "median weighted UniFrac distance to placebo arm (community composition)", "setting": "gut microbiota; 400 mg, day 29, P = 0.177", "result": 0.4480}, {"measurement": "proteobacteria, relative abundance", "setting": "gut microbiota; 600 mg", "result": "< 10", "unit": "%"}, {"measurement": "median weighted UniFrac distance to placebo arm (community composition)", "setting": "gut microbiota; 600 mg, day 9, P = 0.013", "result": 0.663}, {"measurement": "median weighted UniFrac distance to placebo arm (community composition)", "setting": "gut microbiota; 600 mg, day 29, P = 0.077", "result": 0.470}, {"measurement": "increase in proteobacteria", "setting": "gut microbiota; 200-mg and 400-mg doses", "result": "did not see an increase"}, {"measurement": "proportion of the major phyla in stool over time", "setting": "gut microbiota; 200-mg dosing group, not different from placebo", "result": "minimal changes over time"}, {"measurement": "relative abundance of Firmicutes", "setting": "gut microbiota; 400-mg- and 600-mg-BID dosing groups, Bacteroidetes and Actinobacteria increased", "result": "decreased"}, {"measurement": "changes in highly abundant intestinal genera", "setting": "gut microbiota; after 9 days of twice-daily dosing, exception target genus Clostridium", "result": "no significant changes"}, {"measurement": "loss of phyla during treatment", "setting": "gut microbiota; any dose", "result": "no phyla were lost"}, {"measurement": "time until composition was back to baseline levels after stopping the treatment", "setting": "gut microbiota; any dose", "result": "≤ 7", "unit": "days"}, {"measurement": "effect on commensal anaerobes (Bacteroides, bifidobacteria, Clostridium clusters XIVa and IV)", "setting": "gut microbiota; stool microbiome of healthy subjects", "result": "inactive; also recorded: did not impact"}, {"measurement": "percentage of subjects with Clostridium species isolated at baseline but not at subsequent visits", "setting": "gut microbiota; treatment phase, day 1 through day 10, versus placebo", "result": "greater in the CRS3123 treatment groups than in the placebo group"}, {"measurement": "disruption of normal gut microbiota", "setting": "gut microbiota; two lower doses (200, 400 mg), 10 days twice daily", "result": "minimal disruption"}, {"measurement": "C. difficile toxin production and sporulation", "setting": "C. difficile [4]", "result": "inhibits"}, {"measurement": "drug product stability, storage time", "setting": "[5]", "result": "at least 60 months"}]}
